According to US8637496B2, “Compounds having a monogalactosyldiacylglycerol synthase inhibitory activity as herbicide or algaecide, herbicide and algaecide compositions” (Commissariat a l'Energie Atomique, priority 2007, dated 2014):
Structures can show the parent of a compound that is named as a salt. Where two headings read alike, the source gives them in different places.

Target: T1, MGDG synthase in isolated spinach chloroplast envelope membranes (Spinacia oleracea, UniProt Q9SM44)
T1 construct: envelope membranes purified from the lysate by sucrose centrifugation gradient; from tissue; host or cells: envelope membranes of chloroplasts from spinach leaves
T1 sequence (Q9SM44 99-522): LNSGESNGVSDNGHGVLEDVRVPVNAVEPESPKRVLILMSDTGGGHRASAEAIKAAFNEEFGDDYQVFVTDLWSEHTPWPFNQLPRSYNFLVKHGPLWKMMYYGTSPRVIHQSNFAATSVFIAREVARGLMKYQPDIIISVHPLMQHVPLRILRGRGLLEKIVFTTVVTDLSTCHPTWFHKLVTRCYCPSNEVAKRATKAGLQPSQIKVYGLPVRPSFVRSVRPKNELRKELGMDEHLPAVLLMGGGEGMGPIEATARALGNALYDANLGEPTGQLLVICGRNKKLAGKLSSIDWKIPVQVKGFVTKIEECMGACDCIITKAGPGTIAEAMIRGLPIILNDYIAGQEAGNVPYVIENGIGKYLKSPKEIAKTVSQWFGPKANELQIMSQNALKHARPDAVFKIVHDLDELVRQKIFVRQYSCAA
Experiment: MGDG synthase activity in envelope membrane fractions isolated from spinach chloroplasts
Format: biochemical
From the text: All the operations have been carried out as described in the article by Maréchal, E. et al., J. Biol. Chem., 1995, 270, 5714-5722. Crude chloroplasts were obtained from 3-4 kg of spinach leaves and purified by isopycnic centrifugation using Percoll gradients. Purified intact chloroplasts have then been lysed in hypotonic medium and envelope membranes purified from the lysate by sucrose centrifugation gradient as described in the article by Douce, R. and Joyard, J., (1982) in Methods in Chloroplast Molecular Biology (Edelman, M., Hallick R and Chua N H eds), pp 239-256, Elsevier Science Publishers B.V. Amsterdam.
MGDG synthase activity was assayed as described in the article by Maréchal et al. (1995).

[1] = Table 1, obtained in the same manner as FIG. 4, read-out: Inhibitory effect on MGDG synthesis in isolated spinach chloroplast envelope membranes

O=C(OCCCN(Cc1ccccc1)Cc1ccc(F)cc1)N1CCC(n2c(=O)[nH]c3ccccc32)CC1 [Compound 67, 3-(benzyl(4-fluorobenzyl)amino)propyl 4-(2-oxo-2,3-dihydro-1H-benzo[d]imidazol-1-yl)piperidine-1-carboxylate hydrochloride]
IC50 [1]: 12 µM

O=C(OCCN(Cc1ccccc1)Cc1cccc(Oc2ccccc2)c1)N1CCC(n2c(=O)[nH]c3ccccc32)CC1 [Compound 49, 2-(benzyl(3-phenoxybenzyl)amino)ethyl 4-(2-oxo-2,3-dihydro-1H-benzo[d]imidazol-1-yl)piperidine-1-carboxylate hydrochloride]
IC50 [1]: 8 µM

C[C@@H](COC(=O)N1CCC(n2c(=O)[nH]c3ccccc32)CC1)N(Cc1ccccc1)Cc1cccc(Cl)c1 [Compound 56, (S)-2-(benzyl(3-chlorobenzyl)amino)propyl 4-(2-oxo-2,3-dihydro-1H-benzo[d]imidazol-1-yl)piperidine-1-carboxylate hydrochloride]
IC50 [1]: 15 µM

Cn1c(CN(CCCOC(=O)N2CCC(n3c(=O)[nH]c4ccccc43)CC2)Cc2ccccc2)cc2ccccc21 [Compound 72, 3-(benzyl((1-methyl-1H-indol-2-yl)methyl)amino)propyl 4-(2-oxo-2,3-dihydro-1H-benzo[d]imidazol-1-yl)piperidine-1-carboxylate hydrochloride]
IC50 [1]: 50 µM

O=C(OCCN(CCCc1ccccc1)Cc1ccccc1)N1CCC(n2c(=O)[nH]c3ccccc32)CC1 [Compound 46, 2-(benzyl(3-phenylpropyl)amino)ethyl 4-(2-oxo-2,3-dihydro-1H-benzo[d]imidazol-1-yl)piperidine-1-carboxylate hydrochloride]
IC50 [1]: 15 µM

C[C@@H](COC(=O)N1CCC(n2c(=O)[nH]c3ccccc32)CC1)N(Cc1ccccc1)Cc1ccccn1 [Compound 64, (S)-2-(benzyl(pyridin-2-ylmethyl)amino)propyl 4-(2-oxo-2,3-dihydro-1H-benzo[d]imidazol-1-yl)piperidine-1-carboxylate hydrochloride]
IC50 [1]: 35 µM

COc1ccccc1CN(CCOC(=O)N1CCC(n2c(=O)[nH]c3ccccc32)CC1)Cc1ccccc1 [Compound 75, 2-(benzyl(2-methoxybenzyl)amino)ethyl 4-(2-oxo-2,3-dihydro-1H-benzo[d]imidazol-1-yl)piperidine-1-carboxylate]
IC50 [1]: 10 µM

CC(C)(COC(=O)N1CCC(n2c(=O)[nH]c3ccccc32)CC1)N(Cc1ccccc1)Cc1ccccc1 [Compound 33, 2-(dibenzylamino)-2-methylpropyl 4-(1,2-dihydro-2-oxobenzo[d]imidazol-3-yl)piperidine-1-carboxylate]
IC50 [1]: 50 µM

O=C(OCCCN(Cc1ccccc1)Cc1ccc([N+](=O)[O-])cc1)N1CCC(n2c(=O)[nH]c3ccccc32)CC1 [Compound 38, 3-(benzyl(4-nitrobenzyl)amino)propyl 4-(2-oxo-2,3-dihydro-1H-benzo[d]imidazol-1-yl)piperidine-1-carboxylate hydrochloride]
IC50 [1]: 15 µM

O=c1[nH]c2ccccc2n1C1CCN(C(=S)OCCN(Cc2ccccc2)Cc2ccccc2)CC1 [Compound 19, O-2-(dibenzylamino)ethyl 4-(1,2-dihydro-2-oxobenzo[d]imidazol-3-yl)piperidine-1-carbothioate]
IC50 [1]: 20 µM

C[C@@H](COC(=O)N1CCC(n2c(=O)[nH]c3ccccc32)CC1)N(Cc1ccccc1)Cc1cc2ccccc2c2ccccc12 [Compound 61, (S)-2-(benzyl(phenanthren-9-ylmethyl)amino)propyl 4-(2-oxo-2,3-dihydro-1H-benzo[d]imidazol-1-yl)piperidine-1-carboxylate hydrochloride]
IC50: 25 µM

O=C(CCCN(Cc1ccccc1)Cc1ccccc1)N1CCC(n2c(=O)[nH]c3ccccc32)CC1 [Compound 24, 1-[1-(4-Dibenzylamino-butyryl)-piperidin-4-yl]-1,3-dihydro-benzoimidazol-2-one]
IC50 [1]: 25 µM

O=C(OCCN(Cc1ccccc1)Cc1ccc(F)cc1)N1CCC(n2c(=O)[nH]c3ccccc32)CC1 [Compound 45, 2-(benzyl(4-fluorobenzyl)amino)ethyl 4-(2-oxo-2,3-dihydro-1H-benzo[d]imidazol-1-yl)piperidine-1-carboxylate hydrochloride]
IC50 [1]: 5 µM

O=C(OCCCN(Cc1ccccc1)Cc1ccccn1)N1CCC(n2c(=O)[nH]c3ccccc32)CC1 [Compound 59, 3-(benzyl(pyridin-2-ylmethyl)amino)propyl 4-(2-oxo-2,3-dihydro-1H-benzo[d]imidazol-1-yl)piperidine-1-carboxylate hydrochloride]
IC50 [1]: 15 µM

O=C(OCCCN(Cc1ccccc1)Cc1ccnc2ccccc12)N1CCC(n2c(=O)[nH]c3ccccc32)CC1 [Compound 71, 3-(benzyl(quinolin-4-ylmethyl)amino)propyl 4-(2-oxo-2,3-dihydro-1H-benzo[d]imidazol-1-yl)piperidine-1-carboxylate hydrochloride]
IC50 [1]: 50 µM

COc1cccc(CN(Cc2ccccc2)[C@@H](C)COC(=O)N2CCC(n3c(=O)[nH]c4ccccc43)CC2)c1 [Compound 54, (S)-2-(benzyl(3-methoxybenzyl)amino)propyl 4-(2-oxo-2,3-dihydro-1H-benzo[d]imidazol-1-yl)piperidine-1-carboxylate hydrochloride]
IC50 [1]: 25 µM

O=C(OCC(Cc1ccccc1)NCc1ccccc1)N1CCC(n2c(=O)[nH]c3ccccc32)CC1 (stereo not shown) [Compound 88, 2-(benzylamino)-3-phenylpropyl 4-(2-oxo-2,3-dihydro-1H-benzo[d]imidazol-1-yl)piperidine-1-carboxylate]
IC50 [1]: 60 µM

O=C(OCCC(c1ccccc1)c1ccccc1)N1CCC(n2c(=O)[nH]c3ccccc32)CC1 [Compound 12, 3,3-diphenylpropyl 4-(1,2-dihydro-2-oxobenzo[d]imidazol-3-yl)piperidine-1-carboxylate]
IC50 [1]: 45 µM

C[C@@H](COC(=O)N1CCC(n2c(=O)[nH]c3ccccc32)CC1)N(Cc1ccccc1)Cc1cccs1 [Compound 63, (S)-2-(benzyl(thiophen-2-ylmethyl)amino)propyl 4-(2-oxo-2,3-dihydro-1H-benzo[d]imidazol-1-yl)piperidine-1-carboxylate hydrochloride]
IC50 [1]: 30 µM

C[C@@H](COC(=O)Nc1ccc(-n2c(=O)[nH]c3ccccc32)cc1)N(Cc1ccccc1)Cc1ccccc1 [Compound 27, 2-(dibenzylamino)propyl 4-(1,2-dihydro-2-oxobenzo[d]imidazol-3-yl)phenylcarbamate]
IC50 [1]: 45 µM

CN(CCOC(=O)N1CCC(n2c(=O)[nH]c3ccccc32)CC1)Cc1ccccc1 [Compound 9, 2-(N-benzyl-N-methylamino)ethyl 4-(1,2-dihydro-2-oxobenzo[d]imidazol-3-yl)piperidine-1-carboxylate]
IC50 [1]: 100 to 500 µM

C[C@@H](COC(=O)N1CCC(n2c(=O)[nH]c3ccccc32)CC1)N(Cc1ccccc1)Cc1cccc2ccccc12 [Compound 62, (S)-2-(benzyl(naphthalen-1-ylmethyl)amino)propyl 4-(2-oxo-2,3-dihydro-1H-benzo[d]imidazol-1-yl)piperidine-1-carboxylate hydrochloride]
IC50 [1]: 25 µM

C[C@@H](COC(=O)N1CCC(n2c(=O)[nH]c3ccccc32)CC1)N(Cc1ccccc1)Cc1ccc([N+](=O)[O-])cc1 [Compound 36, (S)-2-(benzyl(4-nitrobenzyl)amino)propyl 4-(2-oxo-2,3-dihydro-1H-benzo[d]imidazol-1-yl)piperidine-1-carboxylate hydrochloride]
IC50 [1]: 50 µM

C[C@@H](COC(=O)N1CCC(n2c(=O)[nH]c3ccccc32)CC1)N(Cc1ccccc1)Cc1cccc(OCc2ccccc2)c1 [Compound 60, (S)-2-(benzyl(3-(benzyloxy)benzyl)amino)propyl 4-(2-oxo-2,3-dihydro-1H-benzo[d]imidazol-1-yl)piperidine-1-carboxylate hydrochloride]
IC50 [1]: 12 µM

CC(C)C[C@@H](COC(=O)N1CCC(n2c(=O)[nH]c3ccccc32)CC1)N(Cc1ccccc1)Cc1ccccc1 [Compound 30, (S)-2-(dibenzylamino)-4-methylpentyl 4-(2-oxo-2,3-dihydro-1H-benzo[d]imidazol-1-yl)piperidine-1-carboxylate]
IC50 [1]: 12 µM

COc1ccc(CN(CCCOC(=O)N2CCC(n3c(=O)[nH]c4ccccc43)CC2)Cc2ccccc2)cc1 [Compound 42, 3-(benzyl(4-methoxybenzyl)amino)propyl 4-(2-oxo-2,3-dihydro-1H-benzo[d]imidazol-1-yl)piperidine-1-carboxylate hydrochloride]
IC50 [1]: 50 µM

CC(C)C[C@@H](COC(=O)N1CCC(n2c(=O)[nH]c3ccccc32)CC1)NCc1ccccc1 [Compound 87, (S)-2-(benzylamino)-4-methylpentyl 4-(2-oxo-2,3-dihydro-1H-benzo[d]imidazol-1-yl)piperidine-1-carboxylate]
IC50 [1]: 45 µM

Cn1c(=O)n(C2CCN(C(=O)OC[C@H](Cc3ccccc3)N(Cc3ccccc3)Cc3ccccc3)CC2)c2ccccc21 [Compound 22, (S)-2-(dibenzylamino)-3-phenylpropyl 4-(1,2-dihydro-1-methyl-2-oxobenzo[d]imidazol-3-yl)piperidine-1-carboxylate]
IC50 [1]: 75 µM
